Reference: patent publication EP4603105A1, “PHARMACEUTICAL COMPOSITION CONTAINING CYCLIC COMPOUND HAVING SELECTIVE KRAS INHIBITORY EFFECT AGAINST HRAS AND NRAS” (CHUGAI SEIYAKU KABUSHIKI KAISHA, priority 2022, dated 2024)
pIC50: −log10 of the molar value. Read-outs that look alike come from different tables or passages of the source. *1 amine or outer side, *2 acyl side, *3 side chain or, on linkers, in order; H or OH if unused. Where a SMILES comes first, the peptide text is derived from it. Bridges are numbered along the chain shown (N, C = ends). [ ]: non-standard residue; d: D form. The star is where a group is joined. X25 = O=C([C@H](Cc1ccc(C(F)(F)F)cc1)N(CCC(F)(F)F)[*:1])[*:2]; hPhe(3-Cl-4-CF3) = N[C@@H](CCc1ccc(C(F)(F)F)c(Cl)c1)C(=O)O; NMeGly(cPent) = CN[C@H](C(=O)O)C1CCCC1; NMeD = CN[C@@H](CC(=O)O)C(=O)O; NMeL = CN[C@@H](CC(C)C)C(=O)O; Morpholide = C1CN(*)CCO1; NMeA = CN[C@@H](C)C(=O)O; Ac5c = NC1(C(=O)O)CCCC1; Aze = O=C(O)[C@@H]1CCN1; Sar = CNCC(=O)O

Columns and labels:
[1] = biological target: GDP-bound NRAS wild-type protein (Homo sapiens, UniProt P01111); experiment: Binding to NRAS by surface plasmon resonance (SPR), KD and KD ratio to KRAS
Chain of GDP-bound NRAS wild-type protein (P01111 whole entry): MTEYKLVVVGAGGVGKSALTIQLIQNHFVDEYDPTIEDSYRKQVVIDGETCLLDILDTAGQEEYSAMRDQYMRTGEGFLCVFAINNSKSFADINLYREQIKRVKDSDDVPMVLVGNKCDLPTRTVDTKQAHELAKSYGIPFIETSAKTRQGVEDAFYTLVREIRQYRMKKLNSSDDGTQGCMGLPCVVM
Method in brief: (§1)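 Each cycle, GDP-bound biotin-Avi RAS was captured (~100–300 RU), compound concentrations were injected low to high for 75 s each at 100 µL/min, then the chip was regenerated. Buffer: HBS pH 7.4, 10 mM MgCl2, 10 µM GDP, 1 mM DTT, 4% DMSO; 30°C. KD from a 1:1 binding model.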

HRAS wild-type protein = HRAS wild-type protein (Homo sapiens, UniProt P01112); experiment: Binding to HRAS by surface plasmon resonance (SPR), KD and KD ratio to KRAS
Chain of HRAS wild-type protein (P01112 whole entry): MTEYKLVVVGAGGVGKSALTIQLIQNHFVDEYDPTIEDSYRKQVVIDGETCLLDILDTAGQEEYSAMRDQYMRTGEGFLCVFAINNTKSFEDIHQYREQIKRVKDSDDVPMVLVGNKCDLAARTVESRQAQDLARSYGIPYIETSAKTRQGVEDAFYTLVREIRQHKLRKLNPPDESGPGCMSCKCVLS
Method in brief: as §1

[2] = tested on: human lung cancer strain NCI-H441; type: cell-based
Method in brief: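 Signal came from […] measured per well once the reagent was added. Beforehand, cells were cultured at 37°C and 5% carbon dioxide on a compound series serially diluted in dimethyl sulfoxide.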

[3] = ratio of KD for GDP-bound NRAS wild-type protein to KD for KRAS
[4] = ratio of KD for HRAS wild-type protein to KD for KRAS
[5] = ratio of the KD value with respect to GDP-bound NRAS wild-type protein to the KD value with respect to KRAS
[6] = ratio of the KD value with respect to HRAS wild-type protein to the KD value with respect to KRAS
[7] = ratio of KD value for GDP-bound NRAS wild-type protein to KD value for KRAS (SPR)
[8] = ratio of KD value for HRAS wild-type protein to KD value for KRAS (SPR)

| Structure (SMILES) | NRAS /KRAS [1, 3] | HRAS /KRAS (HRAS wild-type protein; [4]) | pIC50 [2] | NRAS /KRAS [1, 5] | HRAS /KRAS (HRAS wild-type protein; [6]) | NRAS /KRAS [1, 7] | HRAS /KRAS (HRAS wild-type protein; [8]) | pIC50 ([2]; NCI-H441 cells, 4 days, CellTiter-Glo, read-out: NCl-H441 IC50) |
| --- | --- | --- | --- | --- | --- | --- | --- | --- |
| CC[C@H](C)[C@@H]1NC(=O)[C@H](CC(C)C)N(C)C(=O)C[C@@H](C(=O)N2CCOCC2)N(C)C(=O)[C@H](C2CCCC2)N(C)C(=O)C2(CCCC2)NC(=O)[C@@H]2CCCN2C(=O)[C@H](CCc2ccc(C(F)(F)F)c(Cl)c2)NC(=O)CN(C)C(=O)[C@H](Cc2ccc(C(F)(F)F)cc2)N(CCC(F)(F)F)C(=O)[C@@H]2CCN2C(=O)[C@H](C)N(C)C1=O [PP0117] ([NMeL]I[NMeA][Aze][X25][Sar][hPhe(3-Cl-4-CF3)]P[Ac5c][NMeGly(cPent)][NMeD]-Morpholide; lactam N-11) | B (a compound having 3 or more and less than 10 is denoted as B) | B (a compound having 3 or more and less than 10 is denoted as B) | 8.04 |  |  |  |  |  |
| C#CC[C@H]1C(=O)N[C@@H]([C@@H](C)CC)C(=O)N(C)CC(=O)N(C)[C@H]2C/C=C\CCN(C2=O)[C@@H](Cc2ccc(C(F)(F)F)cc2)C(=O)N(C)CC(=O)N[C@@H](CCc2ccc(C(F)(F)F)c(OC)c2)C(=O)N2C[C@H](OCC)C[C@H]2C(=O)NC2(CC(C)(C)C2)C(=O)N(C)[C@@H](C2CCCC2)C(=O)N(C)[C@H](C(=O)N(C)CCC)CC(=O)N1C [PP2053] |  |  | 8.03 | A (a compound having 10 or more and less than 20 is denoted as A) | A (a compound having 10 or more and less than 20 is denoted as A) |  |  |  |
| CCC[C@H]1C(=O)N[C@@H]([C@@H](C)CC)C(=O)N(C)CC(=O)N(C)[C@H]2C/C=C\CCN(C2=O)[C@@H](CC2CCCCC2)C(=O)N(C)CC(=O)N[C@@H](CCc2ccc(C(F)(F)F)c(OC)c2)C(=O)N2C[C@H](OCC)C[C@H]2C(=O)N(C)C2(CCC2)C(=O)N(C)[C@@H](C2CCCC2)C(=O)N(C)[C@H](C(=O)N(C)C)CC(=O)N1C [PP2336] |  |  | 7.79 | A (a compound having 10 or more and less than 20 is denoted as A) | A (a compound having 10 or more and less than 20 is denoted as A) |  |  |  |
| CC[C@H](C)[C@@H]1NC(=O)[C@H](CC(C)C)N(C)C(=O)C[C@@H](C(=O)N2CCCC2)N(C)C(=O)[C@H](C2CCCC2)N(C)C(=O)C2(CCCC2)NC(=O)[C@@H]2CCCN2C(=O)[C@H](CCc2cc(F)c(C(F)(F)F)c(F)c2)NC(=O)CN(C)C(=O)[C@H](Cc2ccc(C(F)(F)F)cc2)N2CCCC[C@@H](C2=O)N(C)C(=O)CN(C)C1=O [PP0571] |  |  | 8.27 | B (a compound having 3 or more and less than 10 is denoted as B) | B (a compound having 3 or more and less than 10 is denoted as B) |  |  |  |
| CC[C@H](C)[C@@H]1NC(=O)[C@H](CC(C)C)N(CC)C(=O)C[C@@H](C(=O)N2CCOCC2)N(C)C(=O)[C@H](C2CCCC2)N(C)C(=O)C2(CCCC2)NC(=O)[C@@H]2CCCN2C(=O)[C@H](CCc2cc(F)c(C(F)(F)F)c(F)c2)NC(=O)CN(C)C(=O)[C@H](Cc2ccc(C(F)(F)F)cc2)N2CCCCC[C@@H](C2=O)N(C)C(=O)CN(C)C1=O [PP0513] |  |  | 6.62 | B (a compound having 3 or more and less than 10 is denoted as B) | B (a compound having 3 or more and less than 10 is denoted as B) |  |  |  |
| CC[C@H](C)[C@@H]1NC(=O)[C@@H]2CCCCCCc3ccc(cc3)C[C@@H](C(=O)N(C)CC(=O)N[C@@H](CCc3ccc(C(F)(F)F)c(OC)c3)C(=O)N3C[C@H](OC(C)C)C[C@H]3C(=O)NC3(CC(C)(C)C3)C(=O)N(C)[C@@H](C3CCCC3)C(=O)N(C)[C@H](C(=O)N(C)C)CC(=O)N2C)N2CC/C=C\C[C@@H](C2=O)N(C)C(=O)CN(C)C1=O [PP3067] | A (a compound having 10 or more and less than 20 is denoted as A) | B (a compound having 3 or more and less than 10 is denoted as B) | 8.96 |  |  |  |  |  |
| CCCOC[C@H]1C(=O)N[C@@H]([C@@H](C)CC)C(=O)N(C)CC(=O)N(C)[C@H]2C/C=C\CCN(C2=O)[C@@H](Cc2ccc(C(F)(F)F)cc2)C(=O)N(C)CC(=O)N[C@@H](CCc2cc(F)c(C(F)(F)F)c(F)c2)C(=O)N2C[C@H](OCC)C[C@H]2C(=O)NC2(CC(C)(C)C2)C(=O)N(C)[C@@H](C2CCCC2)C(=O)N(C)[C@H](C(=O)N(C)CCC)CC(=O)N1C [PP1673] |  |  | 8.22 |  |  | A (a compound having 10 or more and less than 20 is denoted as A) | A (a compound having 10 or more and less than 20 is denoted as A) |  |
| CC[C@H](C)[C@@H]1NC(=O)[C@H](CC(C)C)N(C)C(=O)C[C@@H](C(=O)N2CCOCC2)N(C)C(=O)[C@H](C2CCCC2)N(C)C(=O)C2(CCCC2)NC(=O)[C@@H]2C[C@H](OC)CN2C(=O)[C@H](CCc2cc(F)c(C(F)(F)F)c(F)c2)NC(=O)CN(C)C(=O)[C@H](Cc2ccc(C(F)(F)F)cc2)N2CCCC[C@@H](C2=O)N(C)C(=O)CN(C)C1=O [PP0557] |  |  | 7.83 | B (a compound having 3 or more and less than 10 is denoted as B) | B (a compound having 3 or more and less than 10 is denoted as B) |  |  |  |
| CCC[C@H]1C(=O)N[C@@H]([C@@H](C)CC)C(=O)N(C)CC(=O)N(C)[C@H]2C/C=C\CCN(C2=O)[C@@H](Cc2ccc(C(F)(F)F)cc2)C(=O)N(C)CC(=O)N[C@@H](CCc2cc(F)c(C(F)(F)F)c(F)c2)C(=O)N2C[C@H](OCC)C[C@H]2C(=O)NC2(CCC2)C(=O)N(C)[C@@H](C2CCCC2)C(=O)N(CCC)[C@H](C(=O)N(C)C)CC(=O)N1C [PP1769] |  |  | 7.89 |  |  | A (a compound having 10 or more and less than 20 is denoted as A) | A (a compound having 10 or more and less than 20 is denoted as A) |  |
| CCO[C@@H]1C[C@H]2C(=O)NC3(CC(C)(C)C3)C(=O)N(C)[C@@H](C(CC)CC)C(=O)N(C)[C@H](C(=O)N(C)C)CC(=O)N(C)[C@@H](CC3CC3)C(=O)N[C@@H]([C@@H](C)CC)C(=O)N(C)CC(=O)N(C)[C@H]3C/C=C\CCN(C3=O)[C@@H](Cc3ccc(C)cc3)C(=O)N(C)CC(=O)N[C@@H](CCc3ccc(C(F)(F)F)c(OC)c3)C(=O)N2C1 [PP2166] |  |  | 7.63 | A (a compound having 10 or more and less than 20 is denoted as A) | A (a compound having 10 or more and less than 20 is denoted as A) |  |  |  |
| CCO[C@@H]1C[C@H]2C(=O)NC3(CC(C)(C)C3)C(=O)N(C)[C@@H](C(CC)CC)C(=O)N(C)[C@H](C(=O)N(C)C)CC(=O)N(C)[C@@H](CC(C)C)C(=O)N[C@@H]([C@@H](C)CC)C(=O)N(C)CC(=O)N(C)[C@H]3C/C=C\CCN(C3=O)[C@@H](Cc3ccc(C(F)(F)F)cc3)C(=O)N(C)CC(=O)N[C@@H](CCc3cc(F)c(C(F)(F)F)c(F)c3)C(=O)N2C1 [PP2127] |  |  | 7.90 | AA (a compound having 20 or more is denoted as AA) | A (a compound having 10 or more and less than 20 is denoted as A) |  |  |  |
| CC[C@H](C)[C@@H]1NC(=O)[C@H](CC(C)C)N(C)C(=O)C[C@@H](C(=O)N2CCOCC2)N(C)C(=O)[C@H](C2CCCC2)N(C)C(=O)C(C)(C)NC(=O)[C@@H]2CCCN2C(=O)[C@H](CCc2cc(F)c(C(F)(F)F)c(F)c2)NC(=O)CN(C)C(=O)[C@H](Cc2ccc(C(F)(F)F)cc2)N2CCCC[C@@H](C2=O)N(C)C(=O)CN(C)C1=O [PP0565] |  |  | 7.94 | C (A compound having a KD ratio of 0.1 or more and less than 3 is denoted as C) | B (a compound having 3 or more and less than 10 is denoted as B) |  |  |  |
| CCC[C@H]1C(=O)N[C@@H]([C@@H](C)CC)C(=O)N(C)CC(=O)N(C)[C@H]2C/C=C\CCN(C2=O)[C@@H](Cc2ccc(C(F)(F)F)cc2)C(=O)N(C)CC(=O)N[C@@H](CCc2ccc(CC)c(OC)c2)C(=O)N2C[C@H](OCC)C[C@H]2C(=O)NC2(CC(C)(C)C2)C(=O)N(C)[C@@H](C2CCCC2)C(=O)N(C)[C@H](C(=O)N(C)C)CC(=O)N1C [PP2869] | A (a compound having 10 or more and less than 20 is denoted as A) | A (a compound having 10 or more and less than 20 is denoted as A) |  |  |  |  |  | 7.42 |
| CCO[C@@H]1C[C@H]2C(=O)NC3(CCC3)C(=O)N(C)[C@@H](C3CCCC3)C(=O)N(C)[C@H](C(=O)N3CCOCC3)CC(=O)N(C)[C@@H](CC(C)C)C(=O)N[C@@H]([C@@H](C)CC)C(=O)N(C)CC(=O)N(C)[C@H]3CCCCN(C3=O)[C@@H](Cc3ccc(C(F)(F)F)cc3)C(=O)N(C)CC(=O)N[C@@H](CCc3cc(F)c(C(F)(F)F)c(F)c3)C(=O)N2C1 [PP0578] |  |  | 8.66 | B (a compound having 3 or more and less than 10 is denoted as B) | B (a compound having 3 or more and less than 10 is denoted as B) |  |  |  |
